Marks after values point to notes of the source that are not given here.
What was measured:
[1] = Water solubility of triclosan and butylparaben (UV spectrophotometer); format: physicochemical; conditions: FIGS. 13 and 14; complex with CPβCD
From the text: The triclosan/CPβCD or butylparaben/CPβCD complex can be prepared by adopting the procedures described by Arias et al. (1997)^7 and Mura et al. (2002)^8. […] The solubility of triclosan or butylparaben can be determined by a UV spectrophotometer at wavelength of 282 nm and 256 nm, respectively.

[2] = test system: E. coli ATCC 11229; experiment: Shaking flask method, antibiotics/CPβCD complexes on cellulose fibres; format: cell-based, Escherichia coli; conditions: CPβCD complex
[3] = concentration 0.03 % wt, contacting time 1 hour
[4] = concentration 0.06 % wt, contacting time 1 hour
[5] = concentration 0.125 % wt, contacting time 1 hour
[6] = concentration 0.25 % wt, contacting time 1 hour
[7] = concentration 0.5 % wt, contacting time 1 hour
[8] = concentration 1 % wt, contacting time 1 hour
[9] = contacting time 0.5 min, antibiotic 0.5% wt based on cellulose fibres
[10] = contacting time 1 min, antibiotic 0.5% wt based on cellulose fibres
[11] = contacting time 3 min, antibiotic 0.5% wt based on cellulose fibres
[12] = contacting time 10 min, antibiotic 0.5% wt based on cellulose fibres
[13] = contacting time 30 min, antibiotic 0.5% wt based on cellulose fibres
[14] = contacting time 60 min, antibiotic 0.5% wt based on cellulose fibres

| SMILES | water solubility as a function of CPβCD content [1] | Growth inhibition (%) [2, 3] [%] | Growth inhibition (%) [2, 4] [%] | Growth inhibition (%) [2, 5] [%] | Growth inhibition (%) [2, 6] [%] | Growth inhibition (%) [2, 7] [%] | Growth inhibition (%) [2, 8] [%] | Growth inhibition (%) [2, 9] [%] | Growth inhibition (%) [2, 10] [%] | Growth inhibition (%) [2, 11] [%] | Growth inhibition (%) [2, 12] | Growth inhibition (%) [2, 13] [%] | Growth inhibition (%) [2, 14] [%] |
| --- | --- | --- | --- | --- | --- | --- | --- | --- | --- | --- | --- | --- | --- |
| Oc1cc(Cl)ccc1Oc1ccc(Cl)cc1Cl [Triclosan] | linear increased with the CPβCD content | 23.2 | 50.2 | 68.1 | 87.1 | 99.7 | 100 | 24.6 | 37.7 | 61.0 | 95.8% | 99.6 | 100 |
| CCCCOC(=O)c1ccc(O)cc1 [Butylparaben, butylparaben] | linear increased with the CPβCD content | 4.54 | 9.09 | 54.6 | 81.8 | 99.9 | 100 | 50.0 | 61.9 | 95.8 | 100**** % | 100 | 100 |

From patent publication US20140303322A1, “ANTIMICROBIAL AND BACTERIOSTATIC-MODIFIED POLYMERS FOR CELLULOSE FIBRES” (priority 2012, published 2014)
